# Assay results reported in patent publication US20060229209A1, “Copolymers based on n-vinylamide as adjuvants and agents for using in the agrotechnical field” (priority 2002, published 2006).
# System: Puccinia recondita
# Assay: Improvement in the fungicidal activity: wheat leaves inoculated with Puccinia recondita, sprayed with fungicide plus test additive, visual assessment of infestation
# Assay type: in vivo, Puccinia recondita on wheat variety "Kanzler"
# Settings: no test additive, 8 days in greenhouse after spraying
# Protocol: Both of the leaves which developed first of wheat seeds of the variety “Kanzler”, which were raised in pots, were dusted with spores of Puccinia recondita. In order to guarantee the success of the artificial inoculation, the plants were kept for 24 hours in a humidity chamber without light at a relative humidity of 95 to 99% and a temperature of 20 to 22° C. The next day, the plants were sprayed with an aqueous suspension comprising fungicide at the concentration given below as a mixture with water and 125 ppm of the test additive. The plants were allowed to dry in the air. The experimental plants were subsequently cultivated in a greenhouse for 8 days at a temperature of 22 to 26° C. and a relative humidity of between 40 and 80%. The extent of the fungal infestation on the leaves was assessed visually and expressed as a percentage of the affected leaf area with respect to the unaffected leaf area.
SMILES,% affected leaf area (Epoxiconazole 0.125 ppm a.c.),% affected leaf area (Epoxiconazole 0.25 ppm a.c.),% affected leaf area (Pyraclostrobin 1 ppm a.c.),% affected leaf area (Pyraclostrobin 2 ppm a.c.)
"Fc1ccc([C@]2(Cn3cncn3)O[C@H]2c2ccccc2Cl)cc1 (racemic) [Epoxiconazole, epoxiconazole]",53%,47%,,
"COC(=O)N(OC)c1ccccc1COc1ccn(-c2ccc(Cl)cc2)n1 [Pyraclostrobin, pyraclostrobin]",,,32%,13%
